Results taken from the NIST ThermoML archive (doi:10.1021/acs.jced.6b00542).

Assay: xn = mol fraction of the nth substance listed
Details: Liquid; for mass density / viscosity: 102 kPa; for mass density: Vibrating tube method; for speed of sound: 100 kPa, Frequency=3 MHz, Sing-around technique in a fixed-path interferometer; for viscosity: Concentric cylinders viscometry

CCCCc1ccccc1 [butylbenzene] + CCCCCCCCCCCCCCCC
Details | mass density [kg/m3] | speed of sound [m/s] | viscosity [mPa·s]
323.15 K, x1 = 0.1586 | 759.88 | – | –
323.15 K, x1 = 0.2971 | 767.24 | – | –
323.15 K, x1 = 0.4067 | 773.97 | – | –
323.15 K, x1 = 0.5293 | 782.69 | – | –
323.15 K, x1 = 0.6278 | 790.88 | – | –
323.15 K, x1 = 0.7158 | 799.21 | – | –
323.15 K, x1 = 0.7981 | 808.17 | – | –
323.15 K, x1 = 0.8709 | 817.16 | – | –
323.15 K, x1 = 0.938 | 826.58 | – | –
323.15 K, x1 = 1 | 836.34 | – | –
333.15 K, x1 = 0.1586 | 752.86 | 1208.2 | 1.37
333.15 K, x1 = 0.2971 | 760.13 | 1204.9 | 1.24
333.15 K, x1 = 0.4067 | 766.76 | 1202.5 | 1.13
333.15 K, x1 = 0.5293 | 775.36 | 1200.2 | 1.02
333.15 K, x1 = 0.6278 | 783.43 | 1198.6 | 0.929
333.15 K, x1 = 0.7158 | 791.64 | 1197.8 | 0.856
333.15 K, x1 = 0.7981 | 800.47 | 1197.9 | 0.787
333.15 K, x1 = 0.8709 | 809.32 | 1198.3 | 0.731
333.15 K, x1 = 0.938 | 818.61 | 1199.6 | 0.68
333.15 K, x1 = 1 | 828.21 | 1201.4 | 0.636
343.15 K, x1 = 0.1586 | 745.8 | – | 1.18
343.15 K, x1 = 0.2971 | 752.9 | – | 1.07
343.15 K, x1 = 0.4067 | 759.5 | – | 0.986
343.15 K, x1 = 0.5293 | 767.9 | – | 0.893
343.15 K, x1 = 0.6278 | 775.9 | – | 0.821
343.15 K, x1 = 0.7158 | 783.9 | – | 0.757
343.15 K, x1 = 0.7981 | 792.7 | – | 0.702
343.15 K, x1 = 0.8709 | 801.4 | – | 0.653
343.15 K, x1 = 0.938 | 810.6 | – | 0.61
343.15 K, x1 = 1 | 819.9 | – | 0.571
353.15 K, x1 = 0.1586 | 738.8 | – | 1.03
353.15 K, x1 = 0.2971 | 745.8 | – | 0.939
353.15 K, x1 = 0.4067 | 752.3 | – | 0.868
353.15 K, x1 = 0.5293 | 760.5 | – | 0.792
353.15 K, x1 = 0.6278 | 768.4 | – | 0.731
353.15 K, x1 = 0.7158 | 776.2 | – | 0.677
353.15 K, x1 = 0.7981 | 784.9 | – | 0.63
353.15 K, x1 = 0.8709 | 793.5 | – | 0.588
353.15 K, x1 = 0.938 | 802.5 | – | 0.55
353.15 K, x1 = 1 | 811.7 | – | 0.516
363.15 K, x1 = 0.1586 | 731.6 | – | 0.91
363.15 K, x1 = 0.2971 | 738.6 | – | 0.833
363.15 K, x1 = 0.4067 | 744.9 | – | 0.773
363.15 K, x1 = 0.5293 | 753.1 | – | 0.708
363.15 K, x1 = 0.6278 | 760.8 | – | 0.656
363.15 K, x1 = 0.7158 | 768.5 | – | 0.61
363.15 K, x1 = 0.7981 | 777.1 | – | 0.569
363.15 K, x1 = 0.8709 | 785.4 | – | 0.532
363.15 K, x1 = 0.938 | 794.3 | – | 0.5
363.15 K, x1 = 1 | 803.4 | – | 0.469
373.15 K, x1 = 0.1586 | 724.5 | – | 0.811
373.15 K, x1 = 0.2971 | 731.3 | – | 0.746
373.15 K, x1 = 0.4067 | 737.5 | – | 0.695
373.15 K, x1 = 0.5293 | 745.5 | – | 0.639
373.15 K, x1 = 0.6278 | 753.1 | – | 0.594
373.15 K, x1 = 0.7158 | 760.8 | – | 0.553
373.15 K, x1 = 0.7981 | 769.1 | – | 0.517
373.15 K, x1 = 0.8709 | 777.5 | – | 0.484
373.15 K, x1 = 0.938 | 786.1 | – | 0.456
373.15 K, x1 = 1 | 795 | – | 0.43
